These results are taken from ChEMBL document CHEMBL5236550, “Small molecule selenium-containing compounds: Recent development and therapeutic applications” (Eur J Med Chem, 2021).

In brackets after ≈: the same amount, converted by molar mass.

Assay [1] has as its system PC-3. The experiment in a line: Anticancer activity against human PC-3 cells assessed as cell growth incubation incubated for 72 hrs by MTT assay. Conditions: PC-3, 72 h. It counts as functional, cell-based. A general note: Tetrazolium assays rely on reduction of a dye to a coloured formazan, in cell work by metabolically active cells.
Assay [2] concerns PC-3. Put plainly: Anticancer activity against human PC-3 cells assessed as cell growth inhibition measured upto 72 hrs by MTT assay. It counts as functional, cell-based. The conditions noted are these: PC-3, 72 h.
Assay [3] deals with Caco-2. The experiment in a line: Anticancer activity against human Caco-2 cells assessed as cell growth inhibition measured upto 72 hrs by MTT assay. It counts as functional, cell-based. The conditions noted are these: Caco-2, 72 h.
The subject of assay [4] is BGC-823. Put plainly: Anticancer activity against human BGC-823 cells assessed as cell growth inhibition measured upto 72 hrs by MTT assay. Conditions: BGC-823, 72 h. It counts as functional, cell-based.
The subject of assay [5] is MCF7. Put plainly: Anticancer activity against human MCF7 cells assessed as cell growth inhibition measured upto 72 hrs by MTT assay. It counts as functional, cell-based. Conditions: MCF7, 72 h.
In another assay the test system is SH-SY5Y. The experiment in a line: Anticancer activity against human SH-SY5Y cells assessed as cell viability incubated for 24 hrs by MTT assay relative to control. The format is functional.
Assay [6] deals with MCF7. The experiment in a line: Anticancer activity against human MCF7 cells assessed as cell growth inhibition. The format is functional, cell-based.
The subject of a further assay is T47D. The experiment in a line: Anticancer activity against human T47D cells assessed as cell growth inhibition. The format is functional, cell-based.
A short description of assay [7]: Anticancer activity against human WM35 cells assessed as cell growth inhibition incubated for 72 hrs by MTS assay. The conditions noted are these: WM35, 72 h, pooled result: one value given for 4 cell lines, strains, targets or settings. The format is functional, cell-based.
A further assay has as its system MDA-MB-231. The experiment in a line: Anticancer activity against human MDA-MB-231 cells assessed as cell growth inhibition incubated for 72 hrs by MTT assay. The format is functional, cell-based. The conditions noted are these: MDA-MB-231, 72 h.
Assay [8] relates to MCF7. Put plainly: Anticancer activity against human MCF7 cells assessed as cell growth inhibition incubated for 72 hrs by MTT assay. Conditions: MCF7, 72 h. It counts as functional, cell-based.
In the next assay the test system is WM-115. The experiment in a line: Anticancer activity against human WM-115 cells assessed as cell growth inhibition incubated for 72 hrs by MTT assay. It counts as functional.
The subject of assay [9] is MCF7. Put plainly: Anticancer activity against human MCF7 cells assessed as cell growth incubation incubated for 72 hrs by MTT assay. The format is functional, cell-based. The conditions noted are these: MCF7, 72 h.
In assay [10] the test system is Encephalomyocarditis virus. Put plainly: Antiviral activity against Encephalomyocarditis virus infected in A549 cells assessed as viral growth inhibition incubated for 1 hrs. The format is functional, organism-based. Conditions: Cardiovirus A, A549, 1 h.
In another assay the test system is Human alphaherpesvirus 1. Put plainly: Antiviral activity against Herpes simplex virus 1infected in A549 cells assessed as viral growth inhibition incubated for 1 hrs. It counts as functional.
For the next assay, the system named is CNE-2. Put plainly: Anticancer activity against human CNE-2 cells assessed as cell growth inhibition incubated for 72 hrs by MTT assay. The format is functional, cell-based. Conditions: CNE-2, 72 h.
The test system of another assay is Plasmodium falciparum. The experiment in a line: […] inhibition incubated for 72 hrs by light microscopic analysis. It counts as functional, organism-based. Conditions: K-1, 72 h.
A further assay relates to HL-60. Put plainly: Anticancer activity against human HL-60 cells assessed as cell growth inhibition incubated for 72 hrs by MTT assay. Conditions: HL-60, 72 h. It counts as functional, cell-based.
The next assay deals with SW-620. The experiment in a line: Anticancer activity against human SW620 cells assessed as cell growth inhibition incubated for 72 hrs by MTT assay. The conditions noted are these: SW-620, 72 h. The format is functional, cell-based.
The next assay has as its system A-375. Put plainly: Anticancer activity against human A-375 cells assessed as cell growth inhibition incubated for 72 hrs by MTT assay. It counts as functional, cell-based. The conditions noted are these: A-375, 72 h.
The next assay has as its system LNCaP. Put plainly: Anticancer activity against human LNCaP cells assessed as cell growth inhibition incubated for 1.5 hrs by MTT assay. It counts as functional, cell-based.
The next assay deals with LNCaP C4-2. The experiment in a line: Anticancer activity against human LNCaP C4-2 cells assessed as cell growth inhibition incubated for 24 hrs by MTT assay. The conditions noted are these: LNCaP C4-2, 24 h. The format is functional, cell-based.
Assay [11] is described as follows: Anticancer activity against human PMNL assessed as cell growth inhibition incubated for 5 mins by luminescence reader analysis. It counts as functional, cell-based.
Assay [12] in a line: Anticancer activity against human PMNL assessed as cell growth inhibition. It counts as functional, cell-based.
The test system of assay [13] is MCF7. Put plainly: Anticancer activity against human MCF7 cells assessed as cell growth inhibition incubated for 48 hrs by MTT assay. Conditions: MCF7, 48 h. It counts as functional, cell-based.
In another assay the test system is Hs68. The experiment in a line: Anticancer activity against human Hs68 cells assessed as cell growth inhibition incubated for 72 hrs by MTT assay. The format is functional, cell-based. The conditions noted are these: Hs68, 72 h.
A further assay relates to Pichia kudriavzevii. Put plainly: Antifungal activity against Candida krusei assessed as fungal growth inhibition incubated for 24 to 48 hrs by microdilution method. The format is functional. Conditions: time 24-48 hrs. A general note: Broth dilution looks for growth in wells or tubes with falling amounts of substance.
Assay [14] is described as follows: Anticancer activity against human Ela-myc- cells assessed as cell growth inhibition by crystal violet staining based assay. The format is functional. The conditions noted are these: Ela-myc-1 cell.
The subject of the next assay is PANC-1. Put plainly: Anticancer activity against human PANC-1 cells assessed as cell growth inhibition by crystal violet staining based assay. The format is functional.
In assay [15] the test system is PC-3. Put plainly: Anticancer activity against human PC-3 cells assessed as cell growth inhibition incubated for 72 hrs by MTT assay. The format is functional, cell-based. The conditions noted are these: PC-3, 72 h.
Assay [16] relates to Caco-2. Put plainly: Anticancer activity against human Caco-2 cells assessed as cell growth inhibition incubated for 72 hrs by MTT assay. It counts as functional, cell-based. The conditions noted are these: Caco-2, 72 h.
Assay [17] has as its system BGC-823. The experiment in a line: Anticancer activity against human BGC-823 cells assessed as cell growth inhibition incubated for 72 hrs by MTT assay. The format is functional, cell-based. The conditions noted are these: BGC-823, 72 h.
Assay [18] relates to HeLa. The experiment in a line: Anticancer activity against human HeLa cells assessed as cell growth inhibition incubated for 48 hrs. It counts as functional, cell-based.
Another assay has as its system LS174T. The experiment in a line: Anticancer activity against human LS174T cells assessed as cell growth inhibition incubated for 48 hrs by MTT assay. The format is functional, cell-based.
The next assay relates to MDA-MB-361. Put plainly: Anticancer activity against human MDA-MB-361 cells assessed as cell growth inhibition incubated for 48 hrs by MTT assay. It counts as functional, cell-based. The conditions noted are these: MDA-MB-361, 48 h.
In assay [19] the test system is HeLa. Put plainly: Anticancer activity against human HeLa cells assessed as cell growth inhibition incubated for 48 hrs by MTT assay. The format is functional, cell-based.
The next assay has as its system K562. The experiment in a line: Anticancer activity against human K562 cells assessed as cell growth inhibition incubated for 48 hrs by MTT assay. The conditions noted are these: K562, 48 h. It counts as functional, cell-based.
A short description of assay [20]: Antitumor activity against human 1205Lu cells xenografted with mouse assessed as reduction in tumor volume at 0.127 uM, ip administered alternate days for 4 week relative to control. The conditions noted are these: time 4 weeks. The format is functional. Set-up: scale not given: the % may be the effect or the level left. For orientation: Xenograft models place foreign cells or tissue in a host animal.

The next assay concerns UACC-903. The experiment in a line: Antitumor activity against human UACC-903 cells xenografted with mouse assessed as reduction in tumor volume at 0.127 uM, ip administered alternate days for 4 week relative to control. Conditions: time 4 weeks. Set-up: scale not given: the % may be the effect or the level left. The format is functional.

On to `N#Cc1ccc(C(=O)[Se]CC(=O)O)cc1`, for which the IC50 in the assay with PC-3 [1] amounted to 10 µM.
Consider `N#C[Se]CCCNC(=O)c1ccccc1Nc1cccc(C(F)(F)F)c1`, for which the IC50 in the assay with PC-3 [2], with Caco-2 [3], with BGC-823 [4] and in the assay with MCF7 [5] was 1.9 µM throughout.
As to `C=CCn1[se]c2ccccc2c1=O`, the Activity in the assay with SH-SY5Y was 86%.
Turning to `O=C(NC(=[Se])Nc1ccccc1)c1cccs1`, the IC50 in the assay on MCF7 [6] turned out to be 4.2 µM; with T47D it was 6.1 µM.
Turning to `Cc1ccc(-c2cc(C(F)(F)F)nn2-c2ccc(S(N)(=O)=O)cc2)cc1` [CELECOXIB], the IC50 in assay [7] amounted to 55.6 µM.
For `Brc1ccc2nc(-c3ccc4n[se]nc4c3)[nH]c2c1`, the IC50 in the assay on MDA-MB-231 stood at 1.3 µM; in the assay with MCF7 [8], 15.5 µM.
`N#C[Se]CCCCCC(=O)Nc1ccccc1`: the IC5 with WM-115 was 0.8 µM.
With `O=C(O)C[Se]C(=O)c1cccnc1Cl`, the IC50 stood at 0.003 µM in the assay with MCF7 [9] and 10 µM with PC-3 [1].
With `Clc1ccc2nc(-c3ccc4n[se]nc4c3)[nH]c2c1`, the IC50 in the assay on MDA-MB-231 is 2.1 µM; in the assay on MCF7 [8], 26.3 µM.
As to `O=c1c2ccccc2[se]n1Cc1ccccc1`, the IC50 in [10] came to 6 µg/mL (≈ 20.8 µM). Further, the MIC in the assay with Human alphaherpesvirus 1 stood at 2 µg/mL (≈ 6.94 µM).
In the case of `N[C@@H](C[Se][Se]C[C@H](N)C(=O)O)C(=O)O`, the IC50 in the assay with CNE-2 worked out at 5.6 µM; in the assay on Plasmodium falciparum, 65 µM; in the assay with HL-60, 34.5 µM; with SW-620 it was 7.3 µM; in the assay with A-375 it was 3.6 µM.
As for `N#C[Se]Cc1ccc(C[Se]C#N)cc1`, the IC50 amounted to 7 µM in the assay on LNCaP and 7.6 µM in the assay with LNCaP C4-2.
As for `[Se]=C(c1ccccc1)N1CCCCC1`, in assay [11], the IC50 was found to be 11.3 µM.
Regarding `CN(C)C(N)=[Se]`, the IC50 in assay [12] is 6.8 µM.
Take `CCNCc1ccccc1[Se][Se]c1ccccc1CNCC`: in the assay on MCF7 [13], the IC50 came out at 15 µM.
As for `C[Se]C[C@H](N)C(=O)O` [METHYLSELENOCYSTEINE], the IC50 was 633 µM in the assay with SW-620, 193 µM in the assay on MCF7 [8], 54 µM in the assay with A-375 and 50 µM with Hs68.
Take `COc1ccc(-c2c[se]c(NN=C3CCSCC3)n2)cc1`: the MIC in the assay on Pichia kudriavzevii was found to be 3.91 µg/mL (≈ 10.7 µM).
As to `O=C(O)C[Se]C(=O)Cc1ccccc1`, the values for the IC50 in the assay on MCF7 [9] and in the assay on PC-3 [1] were 0.006 µM and 2.9 µM, respectively.
Take `C[Se](=O)O` [METHYLSELENINIC ACID]: the IC50 in the assay with Plasmodium falciparum stood at 10 µM; in [14] it was 3.2 µM; in the assay on PANC-1, 2.6 µM; in the assay with MCF7 [6], 2 µM.
Regarding `O=C(NCCC[Se][Se]CCCNC(=O)c1ccccc1Nc1cccc(C(F)(F)F)c1)c1ccccc1Nc1cccc(C(F)(F)F)c1`, the IC50 came to 6.6 µM in the assay on PC-3 [15], 3.9 µM with Caco-2 [16], 6.8 µM in the assay on MCF7 [8] and 8.3 µM in the assay on BGC-823 [17].
Take `O=c1c2ccccc2[se]n1-c1ccccn1`: in the assay on SH-SY5Y, the Activity is on record as 84%.
With `NC(=[Se])N/N=C/c1cccc2cccnc12`, the IC50 in the assay with HeLa [18] worked out at 6.6 µM; in the assay on LS174T it was 14.4 µM; in the assay with MDA-MB-361, 9.2 µM; in the assay on HeLa [19] it was 9.2 µM; with K562 it was 4 µM.
For the compound `NC(CCC(=O)NC(CS[Se]Cc1cc(-c2ccccc2)n(-c2ccc(S(N)(=O)=O)cc2)n1)C(=O)NCC(=O)O)C(=O)O` (configuration not stated), the Activity (in [20]; with UACC-903) was 70% each time. The IC50 in assay [7] is 7.66 µM.

The IC50 is the midpoint of a concentration-inhibition curve.
